Laboratory results as given in patent US20160333006A1, “ARYL LACTA KINASE INHIBITORS” (Bristol-Myers Squibb Company, priority 2014, published 2016).

What was measured:
[1] = tested on: mice; assay: formalin paw test; assay type: in vivo, mouse
Protocol: AAK1 homozygous (−/−) and their wild-type (+/+) littermates were tested using the formalin paw test in order to assess their acute and tonic nociceptive responses. For these tests, Automatic Nociception Analyzers (purchased from the Ozaki lab at University of California, San Diego) were used. A metal band was placed around the left hind paw of each mouse 30 minutes prior to testing. After the 30-minute acclimation period, 20 μl of 5% formalin is subcutaneously injected in the dorsal surface of the left hind paw. Mice were individually housed in cylindrical chambers for 45 minutes. Fresh 5% formalin solution was prepared by diluting formaldehyde (Formalde-fresh 20%, Fisher Scientific, Fair Lawn, N.J.) with distilled water. Investigatory compounds were administered 30 minutes prior to formalin injection.
A computer recorded flinches per minute, total flinches for phase I (acute phase=first 8 minutes), and total flinches for phase II (tonic phase=time between minutes 20-40) through an electromagnetic field. See Yaksh T L, Ozaki G, McCumber D, Rathbun M, Svensson C, Malkmus S, Yaksh M C. An automated flinch detecting system for use in the formalin nociceptive bioassay. J Appl Physiol., 2001; 90:2386-402.
The same test was used to confirm that the administration of an AAK1 inhibitor can also affect pain response.
A compound of the disclosure was tested in this assay at different doses. Gabapentin and pregabalin were used as positive controls. Results are shown below in Table 2, wherein the effect of gabapentin at 200 mg/kg is considered a 100% response, the % response for the other compounds is relative to the 200 mg/kg dose of gabapentin, “sc” means subcutaneous administration; “po” means oral administration.

[2] = target: T1, GST-Xa-hAAK1 (Homo sapiens, UniProt Q2M2I8); assay: AAK1 kinase assay; assay type: biochemical; details: ATP 22 μM
T1 construct: made in house
Protocol: The assays were performed in U-bottom 384-well plates. […] The reactions were initiated by the combination of bacterially expressed, GST-Xa-hAAK1 with substrates and test compounds. The reactions were incubated at room temperature for 3 hours and terminated by adding 60 μl of 35 mM EDTA buffer to each sample. The reactions were analyzed on the Caliper LabChip 3000 (Caliper, Hopkinton, Mass.) by electrophoretic separation of the fluorescent substrate and phosphorylated product. […] Compounds were dissolved at 10 mM in dimethylsulfoxide (DMSO) and evaluated at eleven concentrations. IC50 values were derived by non-linear regression analysis.

[3] = target: T2, AAK1 (full length human) in HEK293F cells (Homo sapiens, UniProt Q2M2I8); assay: HEK281 cell-based assay (phospho-mu2 Western blot in transfected HEK293F cells); details: 3 hours
T2 construct: fused on or other part: HA tag (AAK1/HA in pIRES vector)
Protocol: On day one, cells were plated on a 10 cm dish so that they are ˜80% confluent at time oftransfection. Roughly 12 million cells were in a 10 cm dish at time of transfection. […] The DNA was comprised of a mixture (per 10 cm dish) containing 3 ug AAK1/HA/pIRES (full length human, NCBI accession no. NP_055726.2), 45 μg Flag/AP2MI/pcDNA (full length human), and 1.5 ml OPTI-MEM. The Lipofectamine 2000 is made up of a mixture (per 10 cm dish) containing 144 μl Lipofectamine 2000 and 1.5 ml OPTI-MEM. Each mixture was transferred to individual 15 ml tubes and incubated at RT for 5 minutes, and then the two mixes were combined and incubated at RT for 20 minutes. Growth media was then aspirated from each 10 cm plate and replaced with 10 ml of DMEM+10% FBS (no GPS). Finally, 3 ml DNA/Lipofectamine mix was added to each 10 cm dish and mix gently followed by incubate of plate overnight at 37° C. and 5% CO2.
On day three, compounds were diluted in 100% DMSO at 1000× final concentration, followed by 3-fold serial dilutions for a total of 5 concentrations tested. Four compounds were tested per 10 cm dish. One ul of each compound dilution was then pipetted into a deep-well, 96-well plate, followed by addition of 500 μl DMEM+0.5% FBS into each well for a 2× final concentration of each compound. Cells were resuspended in a 10 cm dish by simple pipetting (HEK293 cells come off the plate that easy at this point) and then transferred to a 50 ml conical tube and pelleted by centrifugation at 1000 rpm for 5 min. Cell pellets were then resuspended in 2.75 ml DMEM+0.5% FBS per 10 cm dish and 100 μl of cell suspension transferred into each well of 96-well TC plate. Finally, 100 μl of 2× compound diluted in DMEM+0.5% FBS was then added into wells containing cell suspension for a 1× final concentration. Plates were then incubated at 37° C. and 5% CO2 for 3 hours followed by transferring of cell suspensions from each well into 12-tube PCR strips. The PCR strips were spun in a tip rack at 1000 rpm for 5 minutes to pellet cells and media was then removed by pipetting without disturbing the cell pellet.
Five ul of 10× NuPage Sample Reducing Agent (with 50 mM DTT) was to each sample followed by heat denaturing at 70 C for 10 min on PCR machine. […] For controls, 2 ng of phospho-mu2 or 20 ng mu2/Flag proteins were loaded in the last well of each gel. After SDS-PAGE, samples on each gel were transferred to PVDF membrane using an iBlot and membranes were blocked for one hour in TBST+5% milk, followed by wash 3× for 5-10 min with TBST.
Finally, the camera was set up to take a picture every 30 seconds for 10 minutes and the best image saved for each blot with no saturated signal (when the signal is saturated, the bands will be highlighted red). A volume analysis on each band was performed to obtain density values. Percent inhibition was calculated for each sample by first normalizing to total Mu2 expression levels and then comparing to 0% and 100% controls. IC50 values were then calculated using Excel fitting software.

[4] = phospho-mu2, given as IC50 range
[5] = 50 mg/kg sc, relative to gabapentin 200 mg/kg = 100% response

T2 sequence (Q2M2I8 1-822 limits assumed): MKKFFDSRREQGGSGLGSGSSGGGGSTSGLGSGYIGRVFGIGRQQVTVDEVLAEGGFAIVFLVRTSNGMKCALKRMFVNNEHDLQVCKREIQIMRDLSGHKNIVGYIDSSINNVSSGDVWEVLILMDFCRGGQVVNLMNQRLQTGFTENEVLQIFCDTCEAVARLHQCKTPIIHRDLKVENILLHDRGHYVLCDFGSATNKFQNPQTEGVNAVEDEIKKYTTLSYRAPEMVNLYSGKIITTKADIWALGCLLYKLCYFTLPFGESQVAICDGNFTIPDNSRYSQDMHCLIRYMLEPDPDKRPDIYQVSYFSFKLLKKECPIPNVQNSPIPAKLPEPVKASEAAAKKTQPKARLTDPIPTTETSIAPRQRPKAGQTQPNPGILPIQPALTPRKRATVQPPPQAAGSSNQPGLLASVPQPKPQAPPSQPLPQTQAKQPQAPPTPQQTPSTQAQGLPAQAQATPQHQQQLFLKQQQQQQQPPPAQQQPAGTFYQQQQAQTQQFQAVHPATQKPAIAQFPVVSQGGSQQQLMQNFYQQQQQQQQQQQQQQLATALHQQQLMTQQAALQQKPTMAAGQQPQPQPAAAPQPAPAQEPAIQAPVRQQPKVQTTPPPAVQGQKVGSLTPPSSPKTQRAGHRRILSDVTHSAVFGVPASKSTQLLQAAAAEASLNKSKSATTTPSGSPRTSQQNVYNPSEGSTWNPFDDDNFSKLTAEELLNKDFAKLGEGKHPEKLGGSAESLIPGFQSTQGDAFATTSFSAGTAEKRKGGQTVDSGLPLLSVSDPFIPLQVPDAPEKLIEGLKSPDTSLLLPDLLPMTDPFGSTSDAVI
T1 sequence (Q2M2I8 whole entry): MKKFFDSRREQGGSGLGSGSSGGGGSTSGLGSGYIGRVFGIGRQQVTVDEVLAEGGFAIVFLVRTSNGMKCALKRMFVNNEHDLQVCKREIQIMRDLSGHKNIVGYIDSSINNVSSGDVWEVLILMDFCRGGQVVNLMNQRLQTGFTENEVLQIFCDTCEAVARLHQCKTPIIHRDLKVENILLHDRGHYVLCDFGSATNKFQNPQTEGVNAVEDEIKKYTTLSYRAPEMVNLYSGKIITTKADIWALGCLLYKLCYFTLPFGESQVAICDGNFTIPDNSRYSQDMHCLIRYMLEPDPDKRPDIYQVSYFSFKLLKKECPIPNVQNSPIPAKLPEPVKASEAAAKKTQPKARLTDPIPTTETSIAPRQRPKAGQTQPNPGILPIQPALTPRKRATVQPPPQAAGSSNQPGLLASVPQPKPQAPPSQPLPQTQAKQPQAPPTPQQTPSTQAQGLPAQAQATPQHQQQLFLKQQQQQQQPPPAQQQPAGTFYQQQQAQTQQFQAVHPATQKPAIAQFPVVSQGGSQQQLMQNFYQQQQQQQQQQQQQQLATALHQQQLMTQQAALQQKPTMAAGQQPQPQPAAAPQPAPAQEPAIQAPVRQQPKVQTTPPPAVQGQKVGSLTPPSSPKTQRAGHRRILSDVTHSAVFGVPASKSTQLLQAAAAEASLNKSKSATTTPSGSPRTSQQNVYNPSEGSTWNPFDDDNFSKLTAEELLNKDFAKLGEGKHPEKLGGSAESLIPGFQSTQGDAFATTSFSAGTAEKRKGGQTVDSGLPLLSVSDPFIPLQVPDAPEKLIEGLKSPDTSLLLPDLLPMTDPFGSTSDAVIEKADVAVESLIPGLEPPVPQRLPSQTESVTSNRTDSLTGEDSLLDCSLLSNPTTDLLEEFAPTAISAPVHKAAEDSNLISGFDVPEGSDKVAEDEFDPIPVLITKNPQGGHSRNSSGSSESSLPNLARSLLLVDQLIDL

Row | SMILES | IC50 ([2]; given as IC50 range) [nM] | IC50 [3, 4] [nM] | other results
1 | CC(C)C[C@H](N)COc1cc2c(cc1F)c1ccncc1c(=O)n2C [Example 14, (S)-8-((2-amino-4-methylpentyl)oxy)-9-fluoro-6-methylbenzo[c][2,7]naphthyridin-5(6H)-one] |  |  | Response ([1]; 30 mg/kg po, relative to gabapentin 200 mg/kg = 100% response): 62%
2 | Cc1nccc2c1c(=O)n(C)c1cc(OC[C@H](N)CC(C)C)c(Br)cc21 [Example 133, (R)-8-((2-amino-4-methylpentyl)oxy)-9-bromo-4,6-dimethylbenzo[c][2,7]naphthyridin-5(6H)-one] |  |  | IC50 ([2]; 3 hours at room temperature): 0.4 nM; IC50 ([3]; phospho-mu2 normalized to total Mu2): 2.3 nM
3 | Cn1c(=O)c2cnccc2c2cc(Br)c(OCC(N)CC(F)(F)F)cc21 (stereo not drawn) [Example 140, 8-(2-amino-4,4,4-trifluorobutoxy)-9-bromo-6-methylbenzo[c][2,7]naphthyridin-5(6H)-one] | 1 to 10 | 10 to 100 | 
4 | Cn1c(=O)c2cnccc2c2cc(Cl)c(OCC(N)CC(F)(F)F)cc21 (stereo not drawn) [Example 141, 8-(2-amino-4,4,4-trifluorobutoxy)-9-chloro-6-methylbenzo[c][2,7]naphthyridin-5(6H)-one] | 1 to 10 | 10 to 100 | 
5 | CC(C)C[C@H](N)COc1cc2[nH]c(=O)c3cnccc3c2cc1Cl [Example 142, (S)-8-((2-amino-4-methylpentyl)oxy)-9-chlorobenzo[c][2,7]naphthyridin-5(6H)-one] | < 1 | 1 to 10 | 
6 | Cc1nccc2c1c(=O)n(CCO)c1cc(OC[C@@H](N)CC(C)C)c(Br)cc21 [Example 143, (S)-8-((2-amino-4-methylpentyl)oxy)-9-bromo-6-(2-hydroxyethyl)-4-methylbenzo[c][2,7]naphthyridin-5(6H)-one] | 1 to 10 | 1 to 10 | 
7 | CNC(=O)Nc1nccc2c1c(=O)n(C)c1cc(OC[C@@H](N)CC(C)C)c(F)cc21 [Example 145, (S)-1-(8-((2-amino-4-methylpentyl)oxy)-9-fluoro-6-methyl-5-oxo-5,6-dihydrobenzo[c][2,7]naphthyridin-4-yl)-3-methylurea] | 10 to 100 | 10 to 100 | 
8 | CC(C)NCC(O)COc1cc2c(cc1Br)c1ccncc1c(=O)n2C (stereo not drawn) [Example 148, 9-bromo-8-(2-hydroxy-3-(isopropylamino)propoxy)-6-methylbenzo[c][2,7]naphthyridin-5(6H)-one] | 100 to 2000 | 100 to 2000 | 
9 | NCC1(CC(=O)O)CCCCC1 [Gabapentin] |  |  | Response [1, 5]: 60%; Response ([1]; 200 mg/kg sc, considered a 100% response): 100%
10 | CC(C)C[C@H](CN)CC(=O)O [Pregabalin, pregabalin] |  |  | Response [1, 5]: 90%
